ChEMBL document CHEMBL1201862, “PubChem BioAssay data set” (2004)
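Grown in 96-well plates, cells were treated for 48 hours with each compound at five concentrations. Insufficient inhibition: endpoint recorded as highest concentration tested. Abbreviation: GI50, concentration required for 50% inhibition of growth.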 Active and inactive are the calls of the source. Rule as the data show it: active = GI50 up to about 1.1 µM and inactive = higher.

Legend:
Assay in all cases: NCI anticancer screen, dose series, 48 h
OVCAR-4 = test system: OVCAR-4
EKVX = test system: EKVX
NCI-H460 = test system: NCI-H460
SNB-75 = test system: SNB-75
HOP-62 = test system: HOP-62
HCT-15 = test system: HCT-15
OVCAR-8 = test system: OVCAR-8
MOLT-4 = test system: MOLT-4
786-0 = test system: 786-0
MDA-N = test system: MDA-N
CCRF-CEM = test system: CCRF-CEM
M14 = test system: M14
MCF7 = test system: MCF7
DU-145 = test system: DU-145
NCI-H226 = test system: NCI-H226
IGROV-1 = test system: IGROV-1
UACC-62 = test system: UACC-62
TK-10 = test system: TK-10

Measured: GI50

CCOC(=O)c1cc(Sc2ccc(N)c(C(=O)OCC)c2)ccc1N
inactive: OVCAR-4 17.8 µM | EKVX 13.5 µM | NCI-H460 78.2 µM | SNB-75 12.3 µM | HOP-62 14.8 µM | OVCAR-8 20.7 µM | MOLT-4 8.24 µM | 786-0 26.4 µM | MDA-N 5.43 µM | CCRF-CEM 28 µM | M14 > 100 µM | MCF7 13.2 µM | DU-145 > 100 µM | NCI-H226 16.7 µM | IGROV-1 18.6 µM | UACC-62 9.42 µM
> 100 µM: HCT-15

C=C(CCOC)CCC1CCCCC(=C)[C@H]1OC(C)=O (stereo partly specified)
inactive: OVCAR-4 > 100 µM | EKVX > 100 µM | NCI-H460 > 100 µM | SNB-75 > 100 µM | TK-10 > 100 µM | HOP-62 > 100 µM | OVCAR-8 > 100 µM | MOLT-4 59.7 µM | 786-0 > 100 µM | MDA-N > 100 µM | CCRF-CEM > 100 µM | M14 > 100 µM | MCF7 > 100 µM | DU-145 > 100 µM | NCI-H226 97.3 µM | IGROV-1 > 100 µM | UACC-62 > 100 µM
> 100 µM: HCT-15

NC1=NC(c2ccc(Cl)cc2)N(c2ccc(S(N)(=O)=O)cc2)C(N)=N1 (stereo unspecified)
inactive: OVCAR-4 > 100 µM | EKVX > 100 µM | NCI-H460 > 100 µM | SNB-75 > 100 µM | TK-10 > 100 µM | HOP-62 > 100 µM | OVCAR-8 > 100 µM | MOLT-4 > 100 µM | 786-0 > 100 µM | MDA-N > 100 µM | CCRF-CEM > 100 µM | M14 > 100 µM | MCF7 > 100 µM | DU-145 > 100 µM | NCI-H226 > 100 µM | IGROV-1 > 100 µM | UACC-62 > 100 µM
> 100 µM: HCT-15

O=C(O)COc1c(Cl)cc(Cl)c2cccnc12
inactive: OVCAR-4 > 100 µM | EKVX > 100 µM | NCI-H460 > 100 µM | SNB-75 > 100 µM | TK-10 > 100 µM | HOP-62 > 100 µM | OVCAR-8 > 100 µM | MOLT-4 > 100 µM | 786-0 > 100 µM | MDA-N > 100 µM | CCRF-CEM > 100 µM | M14 > 100 µM | MCF7 > 100 µM | DU-145 > 100 µM | NCI-H226 > 100 µM | IGROV-1 96.4 µM | UACC-62 > 100 µM
> 100 µM: HCT-15

CC1(C)N=C(N)N=C(N)N1c1cccc(OCc2cccc([N+](=O)[O-])c2)c1
> 100 µM: HCT-15
inactive: OVCAR-4 39.6 µM | EKVX > 78.3 µM | NCI-H460 1.6 µM | SNB-75 > 57 µM | TK-10 18.7 µM | HOP-62 > 76 µM | OVCAR-8 99.8 µM | MOLT-4 1.22 µM | 786-0 5.78 µM | MDA-N 3.29 µM | CCRF-CEM 5.4 µM | M14 51.8 µM | MCF7 34.1 µM | DU-145 > 38.5 µM | NCI-H226 > 100 µM | IGROV-1 7.87 µM | UACC-62 6.11 µM

CC1(C)CC(=O)c2c(nc3c(ccc4ccccc43)c2-c2ccc(NC(=O)CCC(=O)Nc3ccc(-c4c5c(nc6c4ccc4ccccc46)CC(C)(C)CC5=O)cc3)cc2)C1
> 100 µM: HCT-15
inactive: EKVX 95.3 µM | NCI-H460 > 100 µM | SNB-75 25 µM | TK-10 > 100 µM | HOP-62 > 100 µM | OVCAR-8 > 100 µM | MOLT-4 > 100 µM | 786-0 > 100 µM | MDA-N > 100 µM | CCRF-CEM > 100 µM | M14 > 100 µM | MCF7 > 100 µM | DU-145 > 100 µM | NCI-H226 > 100 µM | IGROV-1 > 100 µM | UACC-62 > 100 µM
